One test concerns the target KRAS G12D (Homo sapiens (Human), UniProt P01116, G12D). In words: KRAS G12D LoEnz Biochemical Assay, BODIPY-GDP Exchange TR-FRET (SOS1-mediated nucleotide exchange). The following applies: read-out: KRas (G12D) GDP HTRF IC50.
The target in another test is KRAS WT (Homo sapiens (Human), UniProt P01116). In words: KRAS WT Biochemical Assay, BODIPY-GDP Exchange TR-FRET (Example 502; 0.06 nM KRAS WT, 15 nM GDP, 300 nM SOS1, 120-minute incubation). The following applies: read-out: KRas HTRF IC50. In outline:
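Biotin-tagged recombinant KRAS WT (0.06 nM) preloaded with 15 nM GDP and Tb-streptavidin, 10 min RT, then exchange started with 300 nM SOS1 plus 300 nM BODIPY-GDP in HEPES pH 7.5 buffer with MgCl2. TR-FRET 520/490 ratio read after 120 min; normalized to DMSO and full-inhibition control; IC50 from 4-parameter fit.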
For orientation: Time-resolved FRET reads energy transfer from a long-lived donor to a nearby acceptor.

KRAS G12D, sequence (P01116-2 other isoform, or with tags, fused parts or gaps G12D): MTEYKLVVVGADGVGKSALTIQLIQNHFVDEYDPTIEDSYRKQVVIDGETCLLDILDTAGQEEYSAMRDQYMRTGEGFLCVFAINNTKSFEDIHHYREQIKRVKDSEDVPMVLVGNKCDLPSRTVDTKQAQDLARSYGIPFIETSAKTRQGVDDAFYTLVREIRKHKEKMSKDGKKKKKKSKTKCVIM
KRAS WT, sequence (P01116-2 other isoform, or with tags, fused parts or gaps): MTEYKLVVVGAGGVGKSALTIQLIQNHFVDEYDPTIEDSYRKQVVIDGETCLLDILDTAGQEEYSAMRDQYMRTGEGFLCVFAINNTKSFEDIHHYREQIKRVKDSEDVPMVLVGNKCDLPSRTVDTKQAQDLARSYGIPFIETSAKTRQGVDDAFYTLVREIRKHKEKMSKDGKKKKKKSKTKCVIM

In the case of `Cc1cc(N)c(F)c(-c2nc3c4c(nc(OC[C@@H]5CC[C@H]6COCCN65)nc4c2F)N2C[C@H]4CC[C@H](N4)[C@H]2[C@H](C)O3)c1Cl` [Compound 101, 4-Chloro-2-fluoro-3-((5S,5aS,6S,9R)-1-fluoro-12-(((6S,8aS)-hexahydro-1H-pyrrolo[2,1-c][1,4]oxazin-6-yl)methoxy)-5-methyl-5a,6,7,8,9,10-hexahydro-5H-4-oxa-3,10a,11,13,14-pentaaza-6,9-methanonaphtho[1,8-ab]heptalen-2-yl)-5-methylaniline], the figures for the IC50 at KRAS G12D and at KRAS WT were 3.19 nM and 906 nM, respectively.
The corresponding values for `Cc1c(F)c(N)cc(-c2nc3c4c(nc(OC[C@]56C[C@H](F)CN5C[C@H](F)C6)nc4c2F)N2C[C@H]4CC[C@H](N4)[C@H]2[C@H](C)O3)c1C(F)(F)F` [Compound 141, 5-((5S,5aS,6S,9R)-12-(((2R,6S,7ar)-2,6-Difluorotetrahydro-1H-pyrrolizin-7a(5H)-yl)methoxy)-1-fluoro-5-methyl-5a,6,7,8,9,10-hexahydro-5H-4-oxa-3,10a,11,13,14-pentaaza-6,9-methanonaphtho[1,8-ab]heptalen-2-yl)-2-fluoro-3-methyl-4-(trifluoromethyl)aniline] are 0.26 nM and 85 nM.
The corresponding values for `Cc1c(F)c(N)cc(-c2nc3c4c(nc(OC[C@H]5[C@H](C#N)CCN5C)nc4c2F)N2C[C@H]4CC[C@H](N4)[C@H]2[C@H](C)O3)c1C(F)(F)F` [Compound 161, (2R,3R)-2-((((5S,5aS,6S,9R)-2-(5-Amino-4° fluoro-3-methyl-2-(trifluoromethylo)henyl)-1-fluoro-5-methyl-5a,6,7,8,9,10-hexahydro-5H-4-oxa-3,10a,11,13,14-pentaaza-6,9-methanonaphtho[1,8-ab]heptalen-12-yl)oxy)methyl)-1-methylpyrrolidine-3-carbonitrile] are 7.61 nM and 1330 nM.
The corresponding values for `Cc1c(F)c(N)c(F)c(-c2nc3c4c(nc(OC[C@@]56CCCN5C[C@H](F)C6)nc4c2F)N2C[C@H]4CC[C@H](N4)[C@H]2[C@H](C)O3)c1CC(F)F` [Compound 175, 4-(2,2-Difluoroethyl)-2,6-difluoro-3-((5S,5aS,6S,9R)-1-fluoro-12-(((2R,7aS)-2-fluorotetrahydro-1H-pyrrolizin-7a(5H)-yl)methoxy)-5-methyl-5a,6,7,8,9,10-hexahydro-5H-4-oxa-3,10a,11,13,14-pentaaza-6,9-methanonaphtho[1,8-ab]heptalen-2-yl)-5-methylaniline] are 3.39 nM and 108 nM.
As for `Cc1cc(N)c(F)c(-c2nc3c4c(nc(OC[C@@H]5CC[C@H]6COCCN65)nc4c2F)N2C[C@H]4CC[C@H](N4)[C@H]2[C@H](C)O3)c1C(F)(F)C(F)(F)F` [Compound 100, 2-Fluoro-3-((5S,5aS,6S,9R)-1-fluoro-12-(((6S,8aS)-hexahydro-1H-pyrrolo[2,1-c][1,4]oxazin-6-yl)methoxy)-5-methyl-5a,6,7,8,9,10-hexahydro-5H-4-oxa-3,10a,11,13,14-pentaaza-6,9-methanonaphtho[1,8-ab]heptalen-2-yl)-5-methyl-4-(perfluoroethyl)aniline], the concentration for half-maximal inhibition (IC50) at KRAS G12D is 1.49 nM; at KRAS WT it was 495 nM.
The like results for `Cc1c(F)c(N)cc(-c2nc3c4c(nc(OCC56C[C@H](F)CN5C[C@@H](F)C6)nc4c2F)N2C[C@H]4CC[C@H](N4)[C@H]2[C@H](C)O3)c1C(F)(F)F` [Compound 139, 5-((5S,5aS,6S,9R)-12-(((2S,6S)-2,6-Difluorotetrahydro-1H-pyrrolizin-7a(5H)-yl)methoxy)-1-fluoro-5-methyl-5a,6,7,8,9,10-hexahydro-5H-4-oxa-3,10a,11,13,14-pentaaza-6,9-methanonaphtho[1,8-ab]heptalen-2-yl)-2-fluoro-3-methyl-4-(trifluoromethyl)aniline] were, in that order, 2.41 nM and 780 nM.
The like results for `Cc1c(F)c(N)cc(-c2nc3c4c(nc(OC[C@H]5C[C@@H]6COCCN65)nc4c2F)N2C[C@H]4CC[C@H](N4)[C@H]2[C@H](C)O3)c1C(F)(F)F` (mixture of isomers) [159 (mixture), 5-((5S,5aS,6S,9R)-12-((4-Oxa-1-azabicyclo[4.2.0]octan-8-yl)methoxy)-1-fluoro-5-methyl-5a,6,7,8,9,10-hexahydro-5H-4-oxa-3,10a,11,13,14-pentaaza-6,9-methanonaphtho[1,8-ab]heptalen-2-yl)-2-fluoro-3-methyl-4-(trifluoromethyl)aniline] were, in that order, 0.23 nM and 45.2 nM.
The corresponding values for `Cc1c(F)c(N)cc(-c2nc3c4c(nc(OCC5(CN6C[C@H]7C[C@@H]6CO7)CC5)nc4c2F)N2C[C@H]4CC[C@H](N4)[C@H]2[C@H](C)O3)c1C(F)(F)F` [Compound 170, 5-((5S,5aS,6S,9R)-12-((1-(((1R,4R)-2-Oxa-5-azabicyclo[2.2.1]heptan-5-yl)methyl)cyclopropyl)methoxy)-1-fluoro-5-methyl-5a,6,7,8,9,10-hexahydro-5H-4-oxa-3,10a,11,13,14-pentaaza-6,9-methanonaphtho[1,8-ab]heptalene-2-yl)-2-fluoro-3-methyl-4-(trifluoromethyl)aniline] are 0.09 nM and 2.16 nM.
In the case of `C[C@@H]1Oc2nc(-c3cc(N)cc4c3CCC4)c(F)c3nc(OC[C@@]45CCCN4C[C@H](F)C5)nc(c23)N2C[C@H]3CC[C@H](N3)[C@@H]12` [Compound 83, 7-((5S,5aS,6S,9R)-1-Fluoro-12-(((2R,7aS)-2-fluorotetrahydro-1H-pyrrolizin-7a(5H)-yl)methoxy)-5-methyl-5a,6,7,8,9,10-hexahydro-5H-4-oxa-3,10a,11,13,14-pentaaza-6,9-methanonaphtho[1,8-ab]heptalen-2-yl)-2,3-dihydro-1H-inden-5-amine], the IC50 on KRAS G12D was found to be 1.15 nM; on KRAS WT it was 123 nM.
The corresponding values for `Cc1c(F)c(N)cc(-c2nc3c4c(nc(OCC5CN(CC(F)F)C5)nc4c2F)N2C[C@H]4CC[C@H](N4)[C@H]2[C@H](C)O3)c1C(F)(F)F` [Compound 128, 5-((5S,5aS,6S,9R)-12-((1-(2,2-Difluoroethyl)azetidin-3-yl)methoxy)-1-fluoro-5-methyl-5a,6,7,8,9,10-hexahydro-5H-4-oxa-3,10a,11,13,14-pentaaza-6,9-methanonaphtho[1,8-ab]heptalen-2-yl)-2-fluoro-3-methyl-4-(trifluoromethyl)aniline] are 0.48 nM and 156 nM.
The like results for `Cc1c(F)c(N)cc(-c2nc3c4c(nc(OC[C@@H]5CC(F)(F)CN5C)nc4c2F)N2C[C@H]4CC[C@H](N4)[C@H]2[C@H](C)O3)c1C(F)(F)F` [Compound 65, 5-((5S,5aS,6S,9R)-12-(((S)-4,4-Difluoro-1-methylpyrrolidin-2-yl)methoxy)-1-fluoro-5-methyl-5a,6,7,8,9,10-hexahydro-5H-4-oxa-3,10a,11,13,14-pentaaza-6,9-methanonaphtho[1,8-ab]heptalen-2-yl)-2-fluoro-3-methyl-4-(trifluoromethyl)aniline] were, in that order, 1.72 nM and 377 nM.
The like results for `Cc1c(F)c(N)cc(-c2nc3c4c(nc(OC[C@]5(CC(F)F)CCCN5C)nc4c2F)N2C[C@H]4CC[C@H](N4)[C@H]2[C@H](C)O3)c1C(F)(F)F` (single isomer, unassigned) [150 (isomer 2)] were, in that order, 0.25 nM and 64.5 nM.
With `Cc1c(F)c(N)cc(-c2nc3c4c(nc(OCC5(CN6CCOCC6)CC5)nc4c2F)N2C[C@H]4CC[C@H](N4)[C@H]2[C@H](C)O3)c1C(F)(F)F` [Compound 118, 2-Fluoro-5-((5S,5aS,6S,9R)-1-fluoro-5-methyl-12-((1-(morpholinomethyl)cyclopropyl)methoxy)-5a,6,7,8,9,10-hexahydro-5H-4-oxa-3,10a,11,13,14-pentaaza-6,9-methanonaphtho[1,8-ab]heptalen-2-yl)-3-methyl-4-(trifluoromethyl)aniline], the IC50 at KRAS G12D stood at 0.09 nM; at KRAS WT, 1.76 nM.
The like results for `CCc1cccc2nc(N)cc(-c3nc4c5c(nc(OC[C@@]67CCCN6C[C@H](F)C7)nc5c3F)N3C[C@H]5CC[C@H](N5)[C@H]3[C@H](C)O4)c12` [Compound 179, 5-Ethyl-4-((5S,5aS,6S,9R)-1-fluoro-12-(((2R,7aS)-2-fluorotetrahydro-1H-pyrrolizin-7a(5H)-yl)methoxy)-5-methyl-5a,6,7,8,9,10-hexahydro-5H-4-oxa-3,10a,11,13,14-pentaaza-6,9-methanonaphtho[1,8-ab]heptalene-2-yl)quinolin-2-amine] were, in that order, 6.64 nM and 659 nM.
The like results for `Cc1cc(N)c(F)c(-c2nc3c4c(nc(OC[C@@H]5CC[C@H]6COCCN65)nc4c2F)N2C[C@H]4CC[C@H](N4)[C@H]2[C@H](C)O3)c1C=C(F)F` [Compound 99, 4-(2,2-Difluorovinyl)-2-fluoro-3-((5S,5aS,6S,9R)-1-fluoro-12-(((6S,8aS)-hexahydro-1H-pyrrolo[2,1-c][1,4]oxazin-6-yl)methoxy)-5-methyl-5a,6,7,8,9,10-hexahydro-5H-4-oxa-3,10a,11,13,14-pentaaza-6,9-methanonaphtho[1,8-ab]heptalen-2-yl)-5-methylaniline] were, in that order, 2.09 nM and 506 nM.
`Cc1c(F)c(N)cc(-c2nc3c4c(nc(OCC5(CN6CCOC[C@H]6C)CC5)nc4c2F)N2C[C@H]4CC[C@H](N4)[C@H]2[C@H](C)O3)c1C(F)(F)F` [Compound 129, 2-Fluoro-5-((5S,5aS,6S,9R)-1-fluoro-5-methyl-12-((1-(((R)-3-methylmorpholino)methyl)cyclopropyl)methoxy)-5a,6,7,8,9,10-hexahydro-5H-4-oxa-3,10a,11,13,14-pentaaza-6,9-methanonaphtho[1,8-ab]heptalen-2-yl)-3-methyl-4-(trifluoromethyl)aniline]: the IC50 came to 0.18 nM at KRAS G12D and 3.87 nM on KRAS WT.

A word on the IC50: it is the concentration that inhibits the measured activity by half.

The record behind these values is patent publication US20240025919A1, “AZA-TETRACYCLIC OXAZEPINE COMPOUNDS AND USES THEREOF” (Genentech, Inc., priority 2022, published 2024).
